Measured values published in paper PMC12060349 (BMC Pharmacology & Toxicology, 2025).

Legend:
[1] = system: healthy Chinese male subjects; test: Safety evaluation; format: in vivo, human (healthy Chinese male subjects); settings: Group 2
[2] = system: patients with advanced NSCLC with EGFR mutations; settings: FLAURA clinical study; cited from earlier work
[3] = system: healthy Chinese male subjects; test: Safety evaluation; format: in vivo, human (healthy Chinese male subjects)

For CO[C@H]1/C=C/O[C@@]2(C)Oc3c(C)c(O)c4c(O)c(c(/C=N/N5CCN(C)CC5)c(O)c4c3C2=O)NC(=O)/C(C)=C\C=C\[C@H](C)[C@H](O)[C@@H](C)[C@@H](O)[C@@H](C)[C@H](OC(C)=O)[C@@H]1C [Rifampicin], the “subjects with TEAEs also related to Rifampicin” value [1] was 20.0%.
In the case of C=CC(=O)Nc1cc(Nc2nccc(-c3cn(C)c4ccccc34)n2)c(OC)cc1N(C)CCN(C)C [Osimertinib], the median overall survival [2] is given as 38.6 months.
In the case of CCC(C)n1ncn(-c2ccc(N3CCN(c4ccc(OCC5COC(Cn6cncn6)(c6ccc(Cl)cc6Cl)O5)cc4)CC3)cc2)c1=O (stereo not shown) [Itraconazole], the “subjects with TEAEs” value ([3]; Group 1, monotherapy phase with Itraconazole 200 mg QD) is reported as 42.9% and the “subjects with TEAEs also related to Itraconazole” value ([3]; Group 1, 13 TEAEs in 10 subjects) is reported as 66.7%.
